In patent US10358672B2, “7-β-hydroxysteroid dehydrogenase mutants and process for the preparation of ursodeoxycholic acid” (Pharmazell GmbH, priority 2014, dated 2019):
Changes are numbered by the printed parent chain. Names and notes keep the numbering of the source.

How the values were obtained:
[1] = biological target: 7β-HSDH obtainable from Collinsella aerofaciens DSM 3979 (Collinsella aerofaciens, UniProt A4ECA9); conditions: cited from earlier work
[2] = system: Collinsella aerofaciens DSM 3979 (ATCC 25986) 7β-HSDH, wild type, SEQ ID NO:2; conditions: cited from earlier work
[3] = biological target: Collinsella aerofaciens 7β-HSDH mutant [T17F] (Collinsella aerofaciens, UniProt A4ECA9, T17F); format: biochemical; conditions: in comparison with the wild type
[4] = biological target: T1, Collinsella aerofaciens 7β-HSDH mutant [R64E], with His tag, SEQ ID NO:4 (Collinsella aerofaciens, UniProt A4ECA9, R64E); experiment: Michaelis-Menten kinetics, purified 7β-HSDH [R64E]; conditions: in comparison with the wild type
T1 sequence (A4ECA9 with tags, fused parts or gaps R64E): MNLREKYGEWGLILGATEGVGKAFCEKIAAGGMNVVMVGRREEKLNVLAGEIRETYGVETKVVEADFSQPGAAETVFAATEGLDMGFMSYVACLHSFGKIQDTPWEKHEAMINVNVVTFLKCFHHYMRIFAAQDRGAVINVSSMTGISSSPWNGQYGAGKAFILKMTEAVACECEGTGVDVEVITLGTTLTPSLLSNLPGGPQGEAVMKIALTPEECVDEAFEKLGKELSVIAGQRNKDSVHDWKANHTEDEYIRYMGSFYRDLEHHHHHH
Excerpt: In this manner, all the enzymes have been isolated and characterized.
The His-tag allows for very simple purification of the HSDH protein since this sequence is bound with high specificity by specific chromatographic material (NTA (Ninitrilotriacetate)-modified support material, loaded with divalent nickel ions, for example “His Pur Ni-NTA” (Nimagen B. V., Nijmegen, The Netherlands)). To this end, the cell-free crude extract is applied to a dropping column comprising this material, which dropping column has previously been equilibrated with the disruption buffer (3 to 5 column volumes). Weakly binding protein was removed by washing with 3 to 5 column volumes of wash buffer (20 mM imidazole, 50 mM sodium phosphate, 300 mM NaCl, pH 8). […] The process was carried out at room temperature. The imidazole which was present was to be removed by buffer exchange.

[5] = biological target: T2, Collinsella aerofaciens 7β-HSDH mutant [G39S], with His tag, SEQ ID NO:5 (Collinsella aerofaciens, UniProt A4ECA9, G39S); experiment: Michaelis-Menten kinetics, purified 7β-HSDH [G39S]; conditions: in comparison with the wild type
T2 sequence (A4ECA9 with tags, fused parts or gaps G39S): T1 sequence (A4ECA9 with tags, fused parts or gaps R64E) with G39S, E64R
Procedure: The kinetic parameter constants vmax and KM were determined with purified enzyme.

[6] = biological target: T3, Collinsella aerofaciens 7β-HSDH dual mutant [G39S/R64E], with His tag, SEQ ID NO:6 (Collinsella aerofaciens, UniProt A4ECA9, G39S/R64E); experiment: Michaelis-Menten kinetics, purified 7β-HSDH [G39S/R64E]
T3 sequence (A4ECA9 with tags, fused parts or gaps G39S/R64E): T1 sequence (A4ECA9 with tags, fused parts or gaps R64E) with G39S

[7] = substrate: C[C@H](CCC(=O)O)[C@H]1CC[C@H]2[C@@H]3C(=O)C[C@@H]4CC(=O)CC[C@]4(C)[C@H]3CC(=O)[C@]12C; experiment: purified protein, by the assay type; conditions: other: purified enzyme, 340 nm, 50 mM KPi pH 8.0, substrate DHCA / cofactor NADPH
[8] = substrate: NC(=O)C1=CN([C@@H]2O[C@H](COP(=O)(O)OP(=O)(O)OC[C@H]3O[C@@H](n4cnc5c(N)ncnc54)[C@H](OP(=O)(O)O)[C@@H]3O)[C@@H](O)[C@H]2O)C=CC1; experiment: purified protein, by the assay type; conditions: other: purified enzyme, 340 nm, 50 mM KPi pH 8.0, substrate DHCA / cofactor NADPH
[9] = Photometric activity determination of 7β-HSDH and mutants (decrease in absorbance at 340 nm, DHCA reduction with NADPH); format: biochemical; conditions: Table 10, dual mutant versus wild type
Procedure: The activity of the 7β-HSDH and of the mutants was determined using a photometric assay, where the decrease in absorbance was measured at 340 nm over a period of 30 seconds.
The expression [R64E] in the first column of the table means that the arginine (R) in position 64 of the protein sequence had been replaced by glutamic acid (E) in the mutant in question. The respective amino acid is abbreviated using the international one-letter code. Analogously, [R64D] means that an aspartic acid has been introduced at this position.

[10] = Cofactor specificity of 7β-HSDH types (compilation of improvements); format: biochemical

Sequence of 7β-HSDH obtainable from Collinsella aerofaciens DSM 3979 (A4ECA9 whole entry): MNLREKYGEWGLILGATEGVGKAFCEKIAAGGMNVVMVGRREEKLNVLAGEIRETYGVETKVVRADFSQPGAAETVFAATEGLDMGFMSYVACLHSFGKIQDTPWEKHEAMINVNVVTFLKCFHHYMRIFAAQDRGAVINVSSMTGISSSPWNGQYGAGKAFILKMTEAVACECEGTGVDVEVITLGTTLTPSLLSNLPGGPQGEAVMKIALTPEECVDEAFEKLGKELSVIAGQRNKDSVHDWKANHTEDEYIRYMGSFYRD
Sequence of Collinsella aerofaciens 7β-HSDH mutant [T17F] (A4ECA9 1-263 with tags or gaps T17F): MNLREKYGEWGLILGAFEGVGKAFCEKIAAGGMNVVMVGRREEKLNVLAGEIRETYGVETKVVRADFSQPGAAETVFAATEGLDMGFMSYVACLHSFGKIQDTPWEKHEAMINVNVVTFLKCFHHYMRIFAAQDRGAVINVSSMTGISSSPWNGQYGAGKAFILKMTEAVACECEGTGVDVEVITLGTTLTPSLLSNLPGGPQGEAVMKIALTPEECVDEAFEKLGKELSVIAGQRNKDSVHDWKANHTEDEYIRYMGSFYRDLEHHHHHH

## NC(=O)c1ccc[n+]([C@@H]2O[C@H](COP(=O)([O-])OP(=O)(O)OC[C@H]3O[C@@H](n4cnc5c(N)ncnc54)[C@H](OP(=O)(O)O)[C@@H]3O)[C@@H](O)[C@H]2O)c1 [NADP^+]
[1]
  Vmax: 30.58 U/mg Protein
  kcat: 944.95
[2]
  kcat: 944.95

## C[C@H](CCC(=O)O)[C@H]1CC[C@H]2[C@@H]3C(=O)C[C@@H]4CC(=O)CC[C@]4(C)[C@H]3CC(=O)[C@]12C [DHCA, dehydrocholic acid]
[3]
  Vmax (DHCA), improvement: +5-fold better
[1]
  kcat: 875.35
[4]
  Vmax (DHCA), improvement: +5-fold better
[4]; in words
  Substrate inhibition Ki: +reduced
[5]
  Vmax (DHCA), improvement: +6-fold better
[5]; in words
  Substrate inhibition Ki: +reduced
[6]; in comparison with the wild type
  Vmax (DHCA), improvement: +7-fold better
[6]; in words, course of kinetics in FIG. 6
  substrate inhibition: no longer demonstrates a substrate inhibition
[6]; in words, in comparison with the wild type
  Substrate inhibition Ki: ++eliminated

B1: Collinsella aerofaciens 7β-HSDH (WT), with C-terminal His tag, SEQ ID NO:3 (Collinsella aerofaciens ATCC 25986) (protein)
chain: T1 sequence (A4ECA9 with tags, fused parts or gaps R64E) with E64R
[7]
  Km: 20.5 ± 2.9 µM
  Vmax: 8.7 µmol/min/mg
[8]
  Km: 15.2 ± 2.2 µM
  Vmax: 8.8 µmol/min/mg

B2: 7β-HSDH [G39S/R64E]: 7β-HSDH dual mutant, positions 39 ([G39S]) and 64 ([R64E]) modified at the same time; His tag, SEQ ID NO:6 (protein)
chain: T1 sequence (A4ECA9 with tags, fused parts or gaps R64E) with G39S, E64R
modifications: His tag; 7-beta-HSDH G39S/R64E Mutant
[9]
  Specific activity: 57.5 U/mg
  Volumetric activity: 1115.0 U/ml
[10]
  Cofactor specificity: NADPH
